According to US20080280920A1, “Plasminogen Activator Inhibitor-1 Inhibitors” (priority 2005, published 2008):

Target: T1, wildtype human PAI-1 (Homo sapiens, UniProt P05121)
T1 construct: purchased Molecular Innovations Lot# HWT-804
Test: PAI-1/uPA assay (residual uPA activity, fluorescent substrate SpectroFluor)
Format: biochemical
Details: for Percent PAI-1 inhibition: at the concentration given, percent of activity of untreated PAI-1; for Conc. of compound required for PAI-1 inhibition: concentration giving the percent inhibition, 6 nM PAI-1, 8 nM uPA; for Conc. of compound required for PAI-1 inhibition (result in words): within the concentration range tested
Method: Principle: The assay is based on using a fluorescent substrate (SpectroFluor) to measure residual uPA following inhibition of uPA by PAI-1. PAI-1 used in the assay is pre-treated in the presence of increasing concentrations of the lead compounds to screen for any inhibitory effects on PAI-1. Method: This assay was performed in 96 well microtiter plates. The concentrations of uPA (8 nM) and PAI-1 (6 nM) used in this assay were carefully optimized when using the fluorescent substrate, SpectroFluor™. Stock solutions (10 mM) of all lead compounds were prepared fresh in DMSO. […] 20 μl of 6 nM wildtype human PAI-1 (Molecular Innovations, Lot# HWT-804) was incubated for 15-20 minutes at room temperature in 96 well microtiter plates either with buffer, (50 mM HEPES, 150 mM NaCl, 0.05% Tween-20, 1% BSA, pH 6.6) or various concentrations (10 nM to 100 μM final concentration) of lead compounds in a total volume of 80 μl. A 20 μl aliquot of 8 nM uPA (HMW) solution in 0.05M Tris Buffered™ saline (TBS), pH 8.4 was added to each well and the mixture incubated for an additional 5 minutes at RT. The proteolytic reaction was initiated by addition of 50 μl of 0.1 mM SpectroFluor (Spectrozyme UK Fluorogenic substrate) to each well. The kinetics of the free chromophore, 7-amino-4-methylcoumarin (AMC) released in the course of peptide cleavage by the protease, uPA, was monitored for 30 minutes at 37° C. on a spectrofluorometric microplate reader with an excitation wavelength of 360 nm and emission wavelength of 440 nm. Kinetic data regarding the rate of substrate cleavage by uPA was acquired with Softmax PrO™ software. The difference between the residual uPA activity in the presence or absence of untreated PAI-1, at the molar ratio used, was considered as the “total” PAI-1 activity (100%). The inhibition of uPA by PAI-1 treated with lead compounds was expressed as a percentage of the initial activity of untreated PAI-1. Controls were performed during each experiment to ensure the nearly complete inhibition of uPA by untreated PAI-1 and also to ensure the absence of any direct effect of the lead compounds on uPA alone or on SpectroFluor.

T1 sequence (P05121 24-402): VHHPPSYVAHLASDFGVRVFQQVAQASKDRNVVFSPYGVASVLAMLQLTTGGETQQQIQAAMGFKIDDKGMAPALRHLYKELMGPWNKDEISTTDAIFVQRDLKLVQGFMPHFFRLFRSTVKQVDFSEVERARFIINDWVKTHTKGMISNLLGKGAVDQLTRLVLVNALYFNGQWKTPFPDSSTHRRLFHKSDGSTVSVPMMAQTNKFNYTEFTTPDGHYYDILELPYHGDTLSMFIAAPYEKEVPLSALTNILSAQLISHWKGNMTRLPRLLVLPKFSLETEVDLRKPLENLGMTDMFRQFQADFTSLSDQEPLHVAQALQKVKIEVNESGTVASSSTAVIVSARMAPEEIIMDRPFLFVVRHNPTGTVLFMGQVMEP

SMILES	Percent PAI-1 inhibition	Conc. of compound required for PAI-1 inhibition [µM]	Conc. of compound required for PAI-1 inhibition (result in words)
CC(C)(C)OC(=O)Nc1ccc(O)c(C(=O)NCCO)c1 [Compound Q012021B, tert-Butyl 4-hydroxy-3-{[(2-hydroxyethyl)amino]carbonyl}phenylcarbamate]	25	10	
CCOC(=O)[C@H](Cc1ccccc1)NC(=O)Nc1ccc2c(C)cc(=O)oc2c1 [Compound Q012053, (2S)-2-({[(4-Methyl-2-oxo-2H-chromen-7-yl)amino]carbonyl}amino)-3-phenylpropanoic acid ethyl ester]	44	10	
CCOC(=O)[C@H](Cc1csc2ccccc12)NC(=O)COc1ccc2c(C)cc(=O)oc2c1 [Compound Q012055, (S)—N-[(4-methyl-2-oxo-2H-chromen-7-yl)oxyacetyl]-3-(thianaphthen-3-yl)alanine ethyl ester]	51	0.05	
COc1cc(CNCCc2ccccn2)cc(CN2CCN(c3ccccn3)CC2)c1O [Compound Q012119T, 2-Methoxy-4-({[2-(pyridin-2-yl)ethyl]amino}methyl)-6-[(4-pyridin-2-ylpiperazin-1-yl)methyl]phenol]			No inhibition
CCOC(=O)[C@H](Cc1csc2ccccc12)NC(=O)COc1ccc2c(C(F)(F)F)cc(=O)oc2c1 [Compound Q012124, (2S)-2-({[2-oxo-4-(trifluoromethyl)-2H-chromen-7-yl]oxy}acetyl)amino-3-(thianaphthen-3-yl)propanoic acid ethyl ester]	13	0.05	
O=C(COc1ccc2c(C(F)(F)F)cc(=O)oc2c1)N[C@@H](Cc1csc2ccccc12)C(=O)O [Compound Q012125, (2S)-2-({[2-oxo-4-(trifluoromethyl)-2H-chromen-7-yl]oxy}acetyl)amino-3-(thianaphthen-3-yl)propanoic acid]			No inhibition
CCOC(=O)[C@H](Cc1csc2ccccc12)NC(=O)[C@@H]1CCCN(C(=O)OC(C)(C)C)C1 [Compound Q012126, (2S)-3-(thianaphthen-3-yl)-2-({[(3R)—N-t-butyloxycarbonylpiperidin-3-yl]carbonyl}amino)propanoic acid ethyl ester]	19	50	
CC(C)(C)OC(=O)N1CCC[C@@H](C(=O)N[C@@H](Cc2csc3ccccc23)C(=O)O)C1 [Compound Q012128, (2S)-3-(thianaphthen-3-yl)-2-({[(3R)—N-t-butyloxycarbonylpiperidin-3-yl]carbonyl}amino)propanoic acid]	14.5	10	
COc1cc(CNCc2ccc(C(=O)O)cc2)cc(CN2CCN(c3ccccn3)CC2)c1O [Compound Q012136]	15	50	
COc1cc(CNc2ccccn2)cc(CN2CCN(c3ccccn3)CC2)c1O [Compound Q012143]	22	250	
COc1cc(CNc2ccc(C(=O)O)cc2)cc(CN2CCN(c3ccccn3)CC2)c1O [Compound Q012146]			No inhibition
COc1cc(CN[C@@H](Cc2ccccc2)C(=O)O)cc(CN2CCN(c3ccccn3)CC2)c1O [Compound Q012148]			No inhibition
CN(C)CCSc1ccc(/C=C2\NC(=O)N(Cc3ccc(OCc4ccccc4)cc3)C2=O)s1 [Compound Q013021]	25	1	
COc1cc(/C=C2\NC(=O)N(Cc3ccc(O)cc3)C2=O)cc(CN2CCN(C)CC2)c1O [Compound Q013024]			No inhibition
COc1cc(/C=C/C(=O)CC(=O)/C=C/c2ccc(O)c(OC)c2)ccc1O [Curcumin, curcumin, reference compound]	22	0.5	

Second part, the molecule after the results:

Percent PAI-1 inhibition	Conc. of compound required for PAI-1 inhibition [µM]	Conc. of compound required for PAI-1 inhibition (result in words)	SMILES
20	1		Cl.O=C(N[C@@H](Cc1csc2ccccc12)C(=O)O)c1cncc(Br)c1 [Compound Q011265, (S)—N-(5-bromonicotinoyl)-3-(thianaphthen-3-yl)alanine hydrochloride]
35	10		CN1C(=N)N/C(=C\c2csc3ccccc23)C1=O [Compound Q012038]
41	1		Cc1cc(=O)oc2cc(OCC(=O)N[C@@H](Cc3csc4ccccc34)C(=O)O)ccc12 [Compound Q012055A, (S)—N-[(4-methyl-2-oxo-2H-chromen-7-yl)oxyacetyl]-3-(thianaphthen-3-yl)alanine]
13	250		CCOC(=O)[C@H](Cc1csc2ccccc12)NC(=O)[C@@H]1CCCNC1 [Compound Q012127, (2S)-3-(thianaphthen-3-yl)-2-({[(3R)-piperidin-3-yl]carbonyl}amino)propanoic acid ethyl ester]
23	1		O=C(N[C@@H](Cc1csc2ccccc12)C(=O)O)[C@@H]1CCCNC1 [Compound Q012129, (2S)-3-(thianaphthen-3-yl)-2-({[(3R)-piperidin-3-yl]carbonyl}amino)propanoic acid]
		No inhibition	N=C(N)N1CCC[C@@H](C(=O)N[C@@H](Cc2csc3ccccc23)C(=O)O)C1 [Compound Q012130, (2S)-3-(thianaphthen-3-yl)-2-({[(3R)—N-[amino(imino)methyl]piperidin-3-yl]carbonyl}amino)propionic acid]
		No inhibition	O=C(O)c1cc(/C=C2\NC(=O)N(Cc3ccccc3)C2=O)ccc1O [Compound Q013012, 5-[(Z)-(1-benzyl-2,5-dioxoimidazolidin-4-ylidene)methyl]-2-hydroxybenzoic acid]
		No inhibition	O=C1N/C(=C\c2csc3ccccc23)C(=O)N1Cc1csc2ccccc12 [Compound Q013018]
		No inhibition	O=C1N/C(=C\c2c[nH]c3ccccc23)C(=O)N1Cc1ccccc1 [Compound Q013019]
